Conditions: in water

O=C1NC(=O)c2cc([N+](=O)[O-])ccc21
Conditions | solubility (mole fraction)
278.15 K | 0.000105
283.15 K | 0.000142
288.15 K | 0.000187
293.15 K | 0.000248
298.15 K | 0.000324
303.15 K | 0.000415
308.15 K | 0.000537
313.15 K | 0.000684
318.15 K | 0.00086
323.15 K | 0.00109
